According to patent EP3782622A1, “ADENOSINE A2B RECEPTOR AGONIST FOR THE TREATMENT OF MUSCU[…]” (Rheinische Friedrich-Wilhelms-Universität Bonn, priority 2019, dated 2021):

Key:
[1] = system: humanen Skelettmuskel-Explantaten; assay: Endogenous respiration (Oxygraph 2K): oxygen consumption of human skeletal muscle explants; format: cell-based; conditions: treated 15 min before measurement
Description: (§1) Skelettmuskelzellen oder -gewebe wurden 15 Minuten vor den […] Messungen wie angegeben behandelt (Oxygraph 2K; Oroboros Instruments). Die Proben wurden in die Oxygraphenkammer mit 2 ml Inkubationsmedium (0,5 mM Ethylenglycol-bis(aminoethylether)-N,N,N',N'-tetraessigsäure (EGTA), 3 mM MgCl2 · 6 H2O, 60 mM K-Lactobionat, 20 mM Taurin, 10 mM KH2PO4, 20 mM 2-(4-(2-Hydroxyethyl)-1-piperazinyl)-ethansulfonsäure (HEPES), 110 mM Saccharose und 1 g/l Bovines Serumalbumin (BSA), pH 7,1) gebracht. In vitro-Atmungswerte wurden bei Erreichen eines stationären Zustandes aufgezeichnet, gefolgt von der Zugabe von Substraten (Zustand 1: endogen; Zustand 2: Adenosindiphosphat (ADP); Zustand 3: Succinat; Zustand 4: Oligomycin; entkoppelt: 2,4-dinitrophenol, carbonylcyanide p-trifluoromethoxyphenyl-hydrazine (FCCP)). Die Atmungsraten wurden auf den Gesamtproteingehalt normalisiert.

[2] = system: murinem Muskelgewebe; assay: Endogenous respiration (Oxygraph 2K): oxygen consumption of murine muscle tissue ex vivo; format: cell-based, murin; conditions: Abbildung 2
Description: as §1

[3] = system: primären humanen Skelettmuskelzellen; assay: Endogenous respiration (Oxygraph 2K): oxygen consumption of primary human skeletal muscle cells; format: cell-based
Description: as §1

[4] = system: primäre humane Skelettmuskelzellen; assay: Glucose uptake test (abcam kit ab136956); format: cell-based; conditions: primary human skeletal muscle cells, Abbildung 5
From the text: Die Glukoseaufnahme wurde mit murinen und humanen SKM-Zellen unter Verwendung des Glukoseaufnahmekits von abcam (ab136956) (abcam plc., Cambridge, UK) nach Herstellerangaben gemessen.

[5] = system: Mäusen; assay: Muscle mass in mice after treatment (muscle analysis/sarcopenia); format: in vivo, Mäuse; conditions: Abbildung 6; for Muskelmasse: mice, 1 mg/kg intraperitoneal once daily for four weeks
From the text: (§2) WT männliche C57BL/6 Mäuse wurden von Janvier gekauft. A2B-/- Mäuse wurden von M. Idzko, Freiburg, Deutschland, zur Verfügung gestellt. ATA2B-KO (A2Bfloxed/floxed;AdipoCre+) und Con-A2B (A2Bfloxed/floxed;AdipoCre-) Mäuse wurden durch Züchtung von A2Bfloxed/floxed Mäusen (erzeugt von Holger K. Eltzschig) mit Adiponectin-Cre (Jackson Laboratories) Mäusen zur Herstellung von A2Bfloxed;AdipoCre+ heterozygoten Mäusen erzeugt. Heterozygote Mäuse wurden mit A2Bfloxed/floxed gezüchtet. Männliche Wurfgeschwister wurden zufällig experimentellen Gruppen zugeordnet. Halbfettdiät (HFD, 60% Energie aus Fett) und Kontrolldiät wurden von ssniff Spezialdiäten GmbH (Soest, DE) gekauft. Mäuse wurden in einem täglichen Zyklus von 12 Stunden Licht (0600 bis 1800) und 12 Stunden Dunkelheit (1800 bis 0600) bei 23 ± 1°C gehalten und erhielten freien Zugang zu Futter und Wasser. Für die Muskelanalyse/Sarkopenie wurden Mäusen vier Wochen lang einmal täglich intraperitoneal mit 1 mg/kg 2-({6-Amino-3,5-dicyano-4-[4-(cyclopropylmethoxy)-phenyl]-pyridin-2-yl}sulfanyl)-acetamid (Bay 60-6583) injiziert.

[6] = system: Mäusen; assay: Muscle strength of mice after treatment; format: in vivo, Mäuse; conditions: Abbildung 8; for Muskelkraft: mice
From the text: as §2
Extensor digitorum longus (EDL) Muskeln aus den Hinterbeinen von Mäusen wurden von Sehne zu Sehne isoliert, in eine wässrige Pufferlösung aus Krebs-Puffer (118 mM NaCl, 3,4 mM KCl, 0,8 mM MgSO4, 1,2 mM KH2PO4, 11,1 mM Glukose, 25 mM NaHCO3, 2,5 mM CaCl2) getaucht und bei Raumtemperatur mit Carbogen (ein Gasgemisch aus 5 Volumenteilen Kohlenstoffdioxid (CO2) und 95 Volumenteilen Sauerstoff (O2)) umspült. Die Muskeln wurden zwischen der Klemme eines Hebelarms und dem Haken eines Kraftaufnehmers eines Myographen (SI Instruments) ausgerichtet. Dann wurden die Muskeln gedehnt, bis ein einzelner Impuls während einer Zuckungsstimulation die maximale Kraft hervorrief. Es wurden Zuckungsstimulationen (2 V, 1 ms) für […] aufgezeichnet und die Kraft gemessen. Die gesamte Muskelquerschnittsfläche wurde geschätzt, indem die Muskelmasse durch das Produkt aus der Muskellänge, dem Verhältnis von […] (0,44 bei EDL) und der Dichte des Säugetiermuskels (1,06 mg/mm^3) dividiert wurde. […]

[7] = system: Satellitenzellen; assay: Isolation and amount of satellite cells from treated old mice; format: in vivo, Mäuse; conditions: 1 mg/kg once daily for four weeks
From the text: as §2, with “injiziert. […]” for “injiziert.”

With N#Cc1c(N)nc(SCC(N)=O)c(C#N)c1-c1ccc(OCC2CC2)cc1 [BAY 60-6583, 2-({6-Amino-3,5-dicyano-4-[4-(cyclopropylmethoxy)-phenyl]pyridin-2-yl}sulfanyl)-acetamid] the “Sauerstoffverbrauch in Bezug auf die Gewebemasse” value ([1]; Abbildung 1) was “signifikant erhöht”, the “Sauerstoffverbrauch in Bezug auf die Gewebemasse” value ([1]; Abbildung 1, listed as Bay 60-6583) was “signifikant gesteigert” and the Sauerstoffverbrauch [2] was “signifikant erhöht”. For the same compound, the “Sauerstoffverbrauch in Bezug auf das veratmete Protein” value ([3]; Abbildung 4) was “signifikant erhöht”, the “Sauerstoffverbrauch in Bezug auf das veratmete Protein” value ([3]; Abbildung 4, listed as Bay 60-6583) was “signifikant gesteigert” and the “Aufnahme von Glukose” value [4] was “signifikant erhöht”. The “Aufnahme von Glukose” value ([4]; listed as Bay 60-6583) was “signifikant gesteigert”, the Muskelmasse ([5]; 1 mg/kg) was “dem alterungsbedingten Verlust von Muskelmasse entgegenwirkt” and the Muskelmasse ([5]; listed as Bay 60-6583, 1 mg/kg) was “signifikant gesteigert”. For the same compound, the “Muskelmasse, treated aged mice compared with young controls” value ([5]; treated aged (20 months) mice vs young (2 months) control animals) was “vergleichbare Muskelmasse wie junge (2 Monate alte) Kontrolltiere”, the Muskelkraft [6] was “signifikant erhöht” and the Muskelkraft ([6]; listed as Bay 60-6583) was “signifikant gesteigert”. For the same compound, the “Muskelkraft, treated aged mice compared with young controls” value ([6]; treated aged mice vs young control animals) was “so viel Kraft wie junge Kontrolltiere”, the “Menge an Satellitenzellen” value ([7]; Abbildung 9, 1 mg/kg) was “erhöht” and the “Menge an Satellitenzellen” value ([7]; Abbildung 9, listed as Bay 60-6583, 1 mg/kg) was “signifikant erhöht”.
